Experiment: mn = molality of the nth substance listed, in mol/kg
Details: 293.15 K; for speed of sound / mass density: 101 kPa, Liquid; for speed of sound: Sing-around technique in a fixed-path interferometer; for mass density: Vibrating tube method

Cl.Cl.OCCN1CCN(CCCN2c3ccccc3Sc3ccc(C(F)(F)F)cc32)CC1 [fluphenazine dihydrochloride] + O
Details | mass density [kg/m3] | speed of sound [m/s] | surface tension liquid-gas [mN/m]
m1 = 0.001 | – | – | 59.1
m1 = 0.002 | – | – | 57.9
m1 = 0.003 | – | – | 54.5
m1 = 0.004 | – | – | 51.1
m1 = 0.005 | – | – | 49
m1 = 0.006 | – | – | 49.9
m1 = 0.00605 | 999.199 | 1484.1 | –
m1 = 0.007 | – | – | 47.7
m1 = 0.00716 | 999.381 | 1484.6 | –
m1 = 0.00794 | 999.509 | 1484.8 | –
m1 = 0.008 | – | – | 45.9
m1 = 0.00898 | 999.679 | 1485.1 | –
m1 = 0.01001 | 999.848 | 1485.3 | –
m1 = 0.01999 | 1001.44 | 1487.5 | –
m1 = 0.025 | – | – | 44.3
m1 = 0.02935 | 1002.91 | 1489.3 | –
m1 = 0.04 | 1004.55 | 1491.5 | 44.6
m1 = 0.0506 | 1006.17 | 1492.8 | –
m1 = 0.05999 | 1007.59 | 1494.4 | –
m1 = 0.075 | – | – | 44
m1 = 0.0803 | 1010.64 | 1496.9 | –
m1 = 0.1 | 1013.53 | 1499 | 44.5
m1 = 0.1248 | 1017.05 | 1501.5 | –
m1 = 0.125 | – | – | 44.1
m1 = 0.149 | 1020.45 | 1503.8 | –
m1 = 0.15 | – | – | 44.6
m1 = 0.1752 | 1023.98 | 1506.3 | –

CN1CCN(CCCN2c3ccccc3Sc3ccc(C(F)(F)F)cc32)CC1.Cl.Cl [trifluoperazine dihydrochloride] + O
Details | mass density [kg/m3] | speed of sound [m/s] | surface tension liquid-gas [mN/m]
m1 = 0.003 | – | – | 58.1
m1 = 0.004 | – | – | 55.1
m1 = 0.005 | – | – | 51.4
m1 = 0.006 | – | – | 51.1
m1 = 0.007 | – | – | 49.6
m1 = 0.0079 | 999.369 | 1484.1 | –
m1 = 0.008 | – | – | 47.7
m1 = 0.00895 | 999.513 | 1484.3 | –
m1 = 0.009 | – | – | 47.7
m1 = 0.01 | – | – | 46.5
m1 = 0.011 | 999.803 | 1484.7 | –
m1 = 0.01547 | 1000.45 | 1485.5 | –
m1 = 0.02109 | 1001.24 | 1486.4 | –
m1 = 0.025 | – | – | 46
m1 = 0.0286 | 1002.31 | 1487.8 | –
m1 = 0.03996 | 1003.91 | 1489.8 | –
m1 = 0.0492 | 1005.18 | 1491.3 | –
m1 = 0.05 | – | – | 46.5
m1 = 0.06004 | 1006.67 | 1493 | –
m1 = 0.075 | – | – | 45.9
m1 = 0.07991 | 1009.39 | 1496.2 | –
m1 = 0.09979 | 1012.03 | 1498.3 | –
m1 = 0.1 | – | – | 46.6
m1 = 0.1248 | 1015.25 | 1500.6 | –
m1 = 0.125 | – | – | 46.5
m1 = 0.1496 | 1018.45 | 1502.9 | –
m1 = 0.15 | – | – | 45.9
m1 = 0.1737 | 1021.45 | 1505.1 | –
m1 = 0.1994 | 1024.63 | 1507.3 | –
m1 = 0.2245 | 1027.65 | 1509.5 | –
m1 = 0.2494 | 1030.56 | 1511.7 | –
m1 = 0.2749 | 1033.52 | 1513.6 | –
m1 = 0.2998 | 1036.3 | 1515.8 | –

Reference: the NIST ThermoML archive (doi:10.1021/je7003963)
